Laboratory results taken from paper PMC5218480 (PLoS ONE, 2017).

Tested on: MV-4-11 cells
Assay: Gene expression microarray analysis (Affymetrix PrimeView) and GSEA
Format: cell-based, human
Design: RFU PODN (11730768_x_at) / Fold change /veh PODN (11730768_x_at) / RFU LINC00158 (11744669_a_at) / Fold change /veh LINC00158 (11744669_a_at) / RFU DUSP10 (11751237_a_at) / Fold change /veh DUSP10 (11751237_a_at) / RFU ID3 (11757404_x_at) / Fold change /veh ID3 (11757404_x_at) / RFU PLEKHG5 (11737974_s_at) / Fold change /veh PLEKHG5 (11737974_s_at) / RFU LRRC4B (11730491_at) / Fold change /veh LRRC4B (11730491_at) / RFU GIMAP4 (11747438_a_at) / Fold change /veh GIMAP4 (11747438_a_at) / RFU KRT8 (11758183_x_at) / Fold change /veh KRT8 (11758183_x_at) / RFU CNN1 (11734310_a_at) / Fold change /veh CNN1 (11734310_a_at) / RFU VPS37D (11726825_at) / Fold change /veh VPS37D (11726825_at) / RFU C10orf10 (11716522_x_at) / Fold change /veh C10orf10 (11716522_x_at) / RFU KIR2DL2 /// KIR2DL4 /// KIR2DL5A /// KIR2DL5B /// KIR2DS1 /// KIR2DS2 /// KIR2DS3 /// KIR2DS4 /// KIR3DL3 /// KIR3DL3 /// KIR3DS1 (11738374_at) / Fold change /veh KIR2DL2 /// KIR2DL4 /// KIR2DL5A /// KIR2DL5B /// KIR2DS1 /// KIR2DS2 /// KIR2DS3 /// KIR2DS4 /// KIR3DL3 /// KIR3DL3 /// KIR3DS1 (11738374_at) / RFU C1QL1 (11718748_at) / Fold change /veh C1QL1 (11718748_at) / RFU TMPRSS4 (11747572_a_at) / Fold change /veh TMPRSS4 (11747572_a_at) / RFU HAMP (11756126_x_at) / Fold change /veh HAMP (11756126_x_at) / RFU RNFT2 (11725882_a_at) / Fold change /veh RNFT2 (11725882_a_at) / RFU NR4A2 (11747474_a_at) / Fold change /veh NR4A2 (11747474_a_at) / RFU ABCC12 (11746883_a_at) / Fold change /veh ABCC12 (11746883_a_at) / RFU TMEM136 (11760407_x_at) / Fold change /veh TMEM136 (11760407_x_at) / RFU CLDN22 /// WWC2 (11732394_at) / Fold change /veh CLDN22 /// WWC2 (11732394_at) / RFU HLA-DPB1 (11760878_x_at) / Fold change /veh HLA-DPB1 (11760878_x_at) / RFU SPINT1 (11716480_a_at) / Fold change /veh SPINT1 (11716480_a_at) / RFU GAP43 (11754022_s_at) / Fold change /veh GAP43 (11754022_s_at) / RFU A4GNT (11735810_at) / Fold change /veh A4GNT (11735810_at) / RFU PRB3 (11715151_x_at) / Fold change /veh PRB3 (11715151_x_at) / RFU TUBB4B (11761932_at) / Fold change /veh TUBB4B (11761932_at) / RFU CAPN14 (11732068_a_at) / Fold change /veh CAPN14 (11732068_a_at) / RFU TMCC2 (11721928_a_at) / Fold change /veh TMCC2 (11721928_a_at) / RFU IRGQ (11745062_a_at) / Fold change /veh IRGQ (11745062_a_at) / RFU FAM174B (11720279_a_at) / Fold change /veh FAM174B (11720279_a_at) / RFU TMPRSS4 (11748680_a_at) / Fold change /veh TMPRSS4 (11748680_a_at) / RFU FAM212B (11763350_a_at) / Fold change /veh FAM212B (11763350_a_at) / RFU PLEKHG5 (11743358_a_at) / Fold change /veh PLEKHG5 (11743358_a_at) / RFU ZSCAN30 (11745921_a_at) / Fold change /veh ZSCAN30 (11745921_a_at) / RFU CMKLR1 (11741424_a_at) / Fold change /veh CMKLR1 (11741424_a_at) / RFU LOC101060620 /// MAPK8IP1 (11723275_at) / Fold change /veh LOC101060620 /// MAPK8IP1 (11723275_at) / RFU SPTSSB (11747773_x_at) / Fold change /veh SPTSSB (11747773_x_at) / RFU PRSS12 (11739890_at) / Fold change /veh PRSS12 (11739890_at) / RFU BIN1 (11741810_x_at) / Fold change /veh BIN1 (11741810_x_at) / RFU WNT11 (11732464_a_at) / Fold change /veh WNT11 (11732464_a_at) / RFU C10orf10 (11716521_a_at) / Fold change /veh C10orf10 (11716521_a_at) / RFU C5orf56 (11738089_at) / Fold change /veh C5orf56 (11738089_at) / RFU CYB561 (11721691_x_at) / Fold change /veh CYB561 (11721691_x_at) / RFU ANKRD19P (11752326_a_at) / Fold change /veh ANKRD19P (11752326_a_at) / RFU OR2T12 /// OR2T33 /// OR2T8 (11738714_s_at) / Fold change /veh OR2T12 /// OR2T33 /// OR2T8 (11738714_s_at) / RFU VCAN (11748164_a_at) / Fold change /veh VCAN (11748164_a_at) / RFU JSRP1 (11732532_at) / Fold change /veh JSRP1 (11732532_at) / RFU KRTAP10-11 (11738290_x_at) / Fold change /veh KRTAP10-11 (11738290_x_at) / RFU MYO3A (11730013_a_at) / Fold change /veh MYO3A (11730013_a_at) / RFU EBF3 (11725865_a_at) / Fold change /veh EBF3 (11725865_a_at) / RFU CAMK2N1 (11719241_x_at) / Fold change /veh CAMK2N1 (11719241_x_at) / RFU C5orf56 (11738088_a_at) / Fold change /veh C5orf56 (11738088_a_at) / RFU OLFML3 (11715873_a_at) / Fold change /veh OLFML3 (11715873_a_at) / RFU LOC100653217 /// NTM (11731650_a_at) / Fold change /veh LOC100653217 /// NTM (11731650_a_at) / RFU MAPK11 (11762145_a_at) / Fold change /veh MAPK11 (11762145_a_at) / RFU FIZ1 (11724087_x_at) / Fold change /veh FIZ1 (11724087_x_at) / RFU OASL (11726364_x_at) / Fold change /veh OASL (11726364_x_at) / RFU SOX15 (11748057_x_at) / Fold change /veh SOX15 (11748057_x_at) / RFU CD79A (11719716_a_at) / Fold change /veh CD79A (11719716_a_at) / RFU HIST1H1D (11736915_at) / Fold change /veh HIST1H1D (11736915_at) / RFU CASKIN2 (11723855_a_at) / Fold change /veh CASKIN2 (11723855_a_at) / RFU LOC730098 (11760151_x_at) / Fold change /veh LOC730098 (11760151_x_at) / RFU OR4N2 (11742367_at) / Fold change /veh OR4N2 (11742367_at) / RFU PRRT2 (11749266_a_at) / Fold change /veh PRRT2 (11749266_a_at) / RFU SNX32 (11753110_a_at) / Fold change /veh SNX32 (11753110_a_at) / RFU CDHR5 (11726645_a_at) / Fold change /veh CDHR5 (11726645_a_at) / RFU RCAN1 (11760418_a_at) / Fold change /veh RCAN1 (11760418_a_at) / RFU FAM167A (11723789_a_at) / Fold change /veh FAM167A (11723789_a_at) / RFU FAM26E (11764081_at) / Fold change /veh FAM26E (11764081_at) / RFU ISYNA1 (11749810_s_at) / Fold change /veh ISYNA1 (11749810_s_at) / RFU ACY1 (11761880_at) / Fold change /veh ACY1 (11761880_at) / RFU 11764098_at / Fold change /veh 11764098_at / RFU SAMD14 (11745864_x_at) / Fold change /veh SAMD14 (11745864_x_at) / RFU NPB (11741838_a_at) / Fold change /veh NPB (11741838_a_at) / RFU TMPRSS6 (11731388_a_at) / Fold change /veh TMPRSS6 (11731388_a_at) / RFU KRTAP10-2 (11738614_at) / Fold change /veh KRTAP10-2 (11738614_at) / RFU ARHGAP8 /// PRR5-ARHGAP8 (11727945_x_at) / Fold change /veh ARHGAP8 /// PRR5-ARHGAP8 (11727945_x_at) / RFU KRTAP5-7 /// NADSYN1 (11734609_at) / Fold change /veh KRTAP5-7 /// NADSYN1 (11734609_at) / RFU RASL12 (11751679_a_at) / Fold change /veh RASL12 (11751679_a_at) / RFU CDKN2B (11736163_a_at) / Fold change /veh CDKN2B (11736163_a_at) / RFU PRF1 (11729649_at) / Fold change /veh PRF1 (11729649_at) / RFU, ZNF638 /// ZNF638-IT1 / Fold change vs veh, ZNF638 /// ZNF638-IT1 / RFU, PANK3 / Fold change vs veh, PANK3 / RFU, SH3YL1 / Fold change vs veh, SH3YL1 / RFU, ZEB2 / Fold change vs veh, ZEB2 / RFU, NRIP1 / Fold change vs veh, NRIP1 / RFU, PTTG1IP / Fold change vs veh, PTTG1IP / RFU, CAPN2 / Fold change vs veh, CAPN2 / RFU, MED14 / Fold change vs veh, MED14 / RFU, SNORA58 / Fold change vs veh, SNORA58 / RFU, C1orf63 / Fold change vs veh, C1orf63 / RFU, LRRFIP1 / Fold change vs veh, LRRFIP1 / RFU, NDUFAF7 / Fold change vs veh, NDUFAF7 / RFU, SLC12A2 / Fold change vs veh, SLC12A2 / RFU, IBTK / Fold change vs veh, IBTK / RFU, ESF1 / Fold change vs veh, ESF1 / Fold change vs veh, TMEM50B / RFU, TAOK1 / Fold change vs veh, TAOK1 / RFU, ACBD3 / Fold change vs veh, ACBD3 / RFU, TMA16 / Fold change vs veh, TMA16 / RFU, RWDD3 / Fold change vs veh, RWDD3 / RFU, BCAT1 / Fold change vs veh, BCAT1 / RFU, EDEM3 / Fold change vs veh, EDEM3 / RFU, TMEM33 / Fold change vs veh, TMEM33 / RFU, WDR75 / Fold change vs veh, WDR75 / RFU, AHCTF1 / Fold change vs veh, AHCTF1 / RFU, TFRC / Fold change vs veh, TFRC / RFU, ZDHHC17 / Fold change vs veh, ZDHHC17 / RFU, NOM1 / Fold change vs veh, NOM1 / RFU, ARL8B / Fold change vs veh, ARL8B / RFU, ZBTB11 / Fold change vs veh, ZBTB11 / RFU, TAMM41 / Fold change vs veh, TAMM41 / RFU, KIAA1704 /// LOC100996395 / Fold change vs veh, KIAA1704 /// LOC100996395 / RFU, ING1 / Fold change vs veh, ING1 / RFU, TRMT61B / Fold change vs veh, TRMT61B / RFU, FUBP3 / Fold change vs veh, FUBP3 / RFU, TP53 / Fold change vs veh, TP53 / RFU, TNKS2 / Fold change vs veh, TNKS2 / RFU, ZFP14 / Fold change vs veh, ZFP14 / RFU, ACTR2 / Fold change vs veh, ACTR2 / RFU, PPP3R1 / Fold change vs veh, PPP3R1 / RFU, PIK3R1 / Fold change vs veh, PIK3R1 / RFU, HNRNPA1 / Fold change vs veh, HNRNPA1 / RFU, RNF170 / Fold change vs veh, RNF170 / RFU, ZNF28 / Fold change vs veh, ZNF28 / RFU, RNGTT / Fold change vs veh, RNGTT / RFU, OGT / Fold change vs veh, OGT / RFU, BRD1 / Fold change vs veh, BRD1 / RFU, MARS / Fold change vs veh, MARS / RFU, ZNF655 / Fold change vs veh, ZNF655 / RFU, FAHD1 / Fold change vs veh, FAHD1 / RFU, BDP1 / Fold change vs veh, BDP1 / RFU, LRRCC1 / Fold change vs veh, LRRCC1 / RFU, ARID1A / Fold change vs veh, ARID1A / RFU, ZNF146 / Fold change vs veh, ZNF146 / RFU, ZNF330 / Fold change vs veh, ZNF330 / RFU, GPN3 / Fold change vs veh, GPN3 / RFU, C9orf123 / Fold change vs veh, C9orf123 / RFU, N4BP2L2 / Fold change vs veh, N4BP2L2 / RFU, ARFIP1 / Fold change vs veh, ARFIP1 / RFU, FAM179B / Fold change vs veh, FAM179B / RFU, BCL10 / Fold change vs veh, BCL10 / RFU, UHRF1BP1L / Fold change vs veh, UHRF1BP1L / RFU, BET1 / Fold change vs veh, BET1 / RFU, CNOT2 / Fold change vs veh, CNOT2 / RFU, ZNF268 / Fold change vs veh, ZNF268 / Fold change vs veh, ZNF507 / RFU, DGCR2 / Fold change vs veh, DGCR2 / RFU, WDSUB1 / Fold change vs veh, WDSUB1 / Fold change vs veh, HSP90B1 /// MIR3652 / RFU, ADSS / Fold change vs veh, ADSS / RFU, GK / Fold change vs veh, GK / RFU, ZNF148 / Fold change vs veh, ZNF148 / RFU, TAF9 / Fold change vs veh, TAF9 / RFU, SLC1A5 / Fold change vs veh, SLC1A5 / RFU, SLMO2 / Fold change vs veh, SLMO2 / RFU, ABCC4 / Fold change vs veh, ABCC4 / RFU, LOC101060439 /// RAP1B / Fold change vs veh, LOC101060439 /// RAP1B / RFU, RFX7 / Fold change vs veh, RFX7 / RFU, GTPBP10 / Fold change vs veh, GTPBP10 / RFU, CNEP1R1 / Fold change vs veh, CNEP1R1 / RFU, BIVM-ERCC5 /// ERCC5 / Fold change vs veh, BIVM-ERCC5 /// ERCC5 / RFU, ILF3 / Fold change vs veh, ILF3 / RFU 11762660_at / Fold change /veh 11762660_at / RFU VCAN (11757783_s_at) / Fold change /veh VCAN (11757783_s_at) / RFU DDX43 (11728927_at) / Fold change /veh DDX43 (11728927_at) / RFU KRT8 (11758188_x_at) / Fold change /veh KRT8 (11758188_x_at) / RFU NKD1 (11759106_at) / Fold change /veh NKD1 (11759106_at) / RFU SRD5A1 (11742802_a_at) / Fold change /veh SRD5A1 (11742802_a_at) / RFU TPSAB1 /// TPSB2 (11721975_s_at) / Fold change /veh TPSAB1 /// TPSB2 (11721975_s_at) / RFU GSTM3 (11746129_a_at) / Fold change /veh GSTM3 (11746129_a_at) / RFU IL23R (11737362_x_at) / Fold change /veh IL23R (11737362_x_at) / RFU TMEM51 (11727254_a_at) / Fold change /veh TMEM51 (11727254_a_at) / RFU PIWIL2 (11732686_x_at) / Fold change /veh PIWIL2 (11732686_x_at) / RFU ORM1 (11744905_x_at) / Fold change /veh ORM1 (11744905_x_at) / RFU CCDC152 (11743942_at) / Fold change /veh CCDC152 (11743942_at) / RFU ECM1 (11717891_a_at) / Fold change /veh ECM1 (11717891_a_at) / RFU IL23R (11748794_a_at) / Fold change /veh IL23R (11748794_a_at) / RFU TNFAIP8L3 (11732012_x_at) / Fold change /veh TNFAIP8L3 (11732012_x_at) / RFU MBOAT4 (11741988_at) / Fold change /veh MBOAT4 (11741988_at) / RFU 11764193_at / Fold change /veh 11764193_at / RFU TMEM53 (11763286_at) / Fold change /veh TMEM53 (11763286_at) / RFU MAGEB2 (11727129_at) / Fold change /veh MAGEB2 (11727129_at) / RFU TMEM200A (11744735_a_at) / Fold change /veh TMEM200A (11744735_a_at) / RFU CCDC152 (11751479_a_at) / Fold change /veh CCDC152 (11751479_a_at) / RFU FAM211A (11726209_a_at) / Fold change /veh FAM211A (11726209_a_at) / RFU RGS16 (11746705_a_at) / Fold change /veh RGS16 (11746705_a_at) / RFU VCAN (11755009_s_at) / Fold change /veh VCAN (11755009_s_at) / RFU RHOB (11743442_s_at) / Fold change /veh RHOB (11743442_s_at) / RFU RGS16 (11720943_a_at) / Fold change /veh RGS16 (11720943_a_at) / RFU RGS16 (11720944_at) / Fold change /veh RGS16 (11720944_at) / RFU, VPS4B / Fold change vs veh, VPS4B / RFU, CREB1 / Fold change vs veh, CREB1 / RFU, DNAJC13 / Fold change vs veh, DNAJC13 / RFU, GNAQ / Fold change vs veh, GNAQ / RFU, CDK5R1 / Fold change vs veh, CDK5R1 / RFU, ZRANB3 / Fold change vs veh, ZRANB3 / RFU, CUL4A / Fold change vs veh, CUL4A / RFU, CCNY / Fold change vs veh, CCNY / RFU, UFL1 / Fold change vs veh, UFL1 / RFU, COG3 / Fold change vs veh, COG3 / RFU, DIAPH2 / Fold change vs veh, DIAPH2 / RFU, SKA2 / Fold change vs veh, SKA2 / RFU, AFF3 / Fold change vs veh, AFF3 / RFU, LMF1 / Fold change vs veh, LMF1 / RFU, IPO11 / Fold change vs veh, IPO11 / RFU, DFFB / Fold change vs veh, DFFB / RFU, FOXP1 / Fold change vs veh, FOXP1 / RFU, CARD8 / Fold change vs veh, CARD8 / RFU, STRN3 / Fold change vs veh, STRN3 / RFU, ADK / Fold change vs veh, ADK / RFU, RASSF2 / Fold change vs veh, RASSF2 / RFU, WIPF1 / Fold change vs veh, WIPF1 / RFU, LARP1B / Fold change vs veh, LARP1B / RFU, RASA1 / Fold change vs veh, RASA1 / RFU, RB1 / Fold change vs veh, RB1 / RFU, PPFIA1 / Fold change vs veh, PPFIA1 / RFU, MAT2A / Fold change vs veh, MAT2A / RFU, CCT5 / Fold change vs veh, CCT5 / RFU, WDR92 / Fold change vs veh, WDR92 / RFU, CUX1 / Fold change vs veh, CUX1 / RFU, TTC7A / Fold change vs veh, TTC7A / RFU, TMEM135 / Fold change vs veh, TMEM135 / RFU, DEPTOR / Fold change vs veh, DEPTOR / RFU, CPM / Fold change vs veh, CPM / RFU, DNAJB6 / Fold change vs veh, DNAJB6 / RFU, CACNA2D3 / Fold change vs veh, CACNA2D3 / RFU, DTX4 / Fold change vs veh, DTX4 / RFU, TFCP2 / Fold change vs veh, TFCP2 / RFU, GMCL1 /// GMCL1P1 / Fold change vs veh, GMCL1 /// GMCL1P1 / RFU, AEBP2 / Fold change vs veh, AEBP2 / RFU, SNHG1 /// SNORD22 /// SNORD25 /// SNORD26 /// SNORD27 /// SNORD28 /// SNORD29 /// SNORD31 / Fold change vs veh, SNHG1 /// SNORD22 /// SNORD25 /// SNORD26 /// SNORD27 /// SNORD28 /// SNORD29 /// SNORD31 / Fold change (Aza/veh), C12orf56 (ProbeSet 11735607_a_at) / Fold change (ACY-1035/veh), C12orf56 (ProbeSet 11735607_a_at) / Fold change (Aza/veh), FGFR1OP (ProbeSet 11751329_s_at) / Fold change (ACY-1035/veh), FGFR1OP (ProbeSet 11751329_s_at) / Fold change (Aza/veh), VPS36 (ProbeSet 11739960_a_at) / Fold change (ACY-1035/veh), VPS36 (ProbeSet 11739960_a_at) / RFU SYPL1 (11715823_x_at) / Fold change /veh SYPL1 (11715823_x_at) / RFU IGFBP7 (11715501_s_at) / Fold change /veh IGFBP7 (11715501_s_at) / RFU REEP3 (11722064_at) / Fold change /veh REEP3 (11722064_at) / RFU IGLL1 (11728026_x_at) / Fold change /veh IGLL1 (11728026_x_at): dose or concentration left out as unconfirmed
Conditions: MV-4-11 cells, 48 hours

Compound: Nc1ncn([C@@H]2O[C@H](CO)[C@@H](O)[C@H]2O)c(=O)n1 [azacitidine]
- Fold change /veh ISYNA1 (11749810_s_at): 1.06
